According to ChEMBL document CHEMBL1151559, “Pyridine and piperidine derivatives as inhibitors of dihydrodipicolinic acid synthase, a key enzyme in the diaminopimelate pathway to l-lysine” (Bioorg Med Chem Lett, 1994):
“And” between values parts separate entries of the source, which are not always exact repeats. Identical values can stand only once.

Columns and labels:
[1] = biological target: T1, Dihydrodipicolinate synthase (Streptomyces coelicolor (strain ATCC BAA-471 / A3(2) / M145), UniProt Q93RY0); assay: In vitro inhibition of dihydrodipicolinic acid synthase.; type: functional, Escherichia coli
T1 sequence (Q93RY0 whole entry): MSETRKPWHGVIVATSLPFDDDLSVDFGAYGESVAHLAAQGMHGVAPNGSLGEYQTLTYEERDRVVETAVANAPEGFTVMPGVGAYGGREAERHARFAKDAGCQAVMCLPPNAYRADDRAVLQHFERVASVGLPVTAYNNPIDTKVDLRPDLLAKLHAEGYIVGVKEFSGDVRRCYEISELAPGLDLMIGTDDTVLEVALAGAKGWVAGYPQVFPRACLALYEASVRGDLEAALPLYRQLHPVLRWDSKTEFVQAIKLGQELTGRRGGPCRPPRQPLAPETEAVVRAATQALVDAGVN

[2] = biological target: T1, Dihydrodipicolinate synthase (Streptomyces coelicolor (strain ATCC BAA-471 / A3(2) / M145), UniProt Q93RY0); assay: Inhibitory activity against dihydrodipicolinic acid synthase; type: functional, Escherichia coli

Work on `COC(=O)c1cccc(C(=O)OC)n1` yielded an IC50 [1] of 700 µM.

`COC(=O)[C@@H]1CCC[C@@H](C(=O)OC)N1C` was tested, and the IC50 [1] was 700 µM.

For `N#Cc1cccc(C#N)n1`, the IC50 [1] was 300 µM.

In the case of `COC(=O)[C@@H]1CCC[C@H](C(=O)OC)N1`, the IC50 [1] is reported as 700 µM.

Compound `N#C[C@@H]1CCC[C@@H](C#N)N1` has a Ki [2] of 6300 µM.

With `COC(=O)[C@H]1CCC[C@@H](C(=O)OC)N1N=O` the IC50 [1] was 6200 µM and 700 µM.

`N=C[C@@H]1CCC[C@H](C=N)N1` showed an IC50 [1] of 7200 µM.

`N#C[C@@H]1CCC[C@H](C#N)N1` showed an IC50 [1] of 7400 µM.

Work on `O=C(O)c1cccc[n+]1[O-]` yielded an IC50 [1] of 800 µM.

`O=C(O)c1ccccn1` [2-PICOLINIC ACID] was tested, and the IC50 [1] was 1000 µM.

For `O=C(O)c1cccc(C(=O)O)n1` [DIPICOLINIC ACID], the IC50 [1] was 400 µM.

Compound `O=NN1CCCC1C(=O)O` (stereo not drawn) has an IC50 [1] of 7500 µM.

Compound `COC(=N)c1cccc(C(=N)OC)n1` has an IC50 [1] of 200 µM.

`O=NN1[C@@H](C(=O)O)CCC[C@H]1C(=O)O` gave an IC50 [1] of 2300 µM.

For `O=NN1CCCCC1C(=O)O` (stereo not drawn), the IC50 [1] was 3500 µM.

`O=C(O)c1cccc(C(=O)O)[n+]1[O-]` showed an IC50 [1] of 200 µM.

`COC(=O)[C@@H]1CCC[C@@H](C(=O)OC)N1` was tested, and the IC50 [1] was 5200 µM.

`c1cc(-c2nnn[nH]2)nc(-c2nnn[nH]2)c1` showed an IC50 [1] of 250 µM.
